Experimental data taken from patent publication US20240158740A1, “CELL CLUSTER PRODUCTION METHOD” (National University Corporation Tokyo Medical and Dental …, priority 2021, published 2024).

What was measured:
Type in all cases: cell-based
[1] = test system: Human iPS cells (625A4) colonies; test: Differentiation marker analysis of cell cluster by immunocytostaining after Wnt signal-inhibiting culture step (Day 2); conditions: cell cluster of Day 2
Experimental: Human iPS cells (625A4; Center for iPS Cell Research and Application (CiRA), Kyoto University) were cultured at 37° C. for 6 to 7 days under 5% CO2 in AK02N (Ajinomoto Co., Inc.) (10 cm dish; 8 ml, 24-well plate; 0.5 ml) to form iPS cell colonies of 500 to 700 μm in diameter. The obtained colonies were cultured at 37° C. for 2 days under 5% CO2 in Essential 8 medium (Gibco) (10 cm dish; 8 ml, 24-well plate; 0.5 ml) supplemented with BMP4 (80 ng/ml), VEGF (80 ng/ml), and IWP-2 (2 μM) (Days 0 to 2).
iPS cell colonies were formed as a control in the same manner as in [1] and [2]. Then, the obtained colonies were cultured at 37° C. for 2 days under 5% CO2 in Essential 8 medium (Gibco) (10 cm dish; 8 ml, 24-well plate; 0.5 ml) supplemented with BMP4 (80 ng/ml) and VEGF (80 ng/ml) (Days 0 to 2).
After induction of differentiation in the step of Days 0 to 2 in [1] or [2], the medium was removed, and the cells were washed once with PBS(−) (Gibco). Then, 4% paraformaldehyde was added at a volume of 500 μl/24 wells to the cells and left at room temperature for 15 minutes. Then, the cells were washed three times with PBS(−) and preserved overnight at 4° C. Then, PROTEIN BLOCK SERUM-FREE blocking solution [DAKO, X909] was added at a volume of 500 μl/24 wells to the cells and left at room temperature for 60 minutes for blocking. Then, a primary antibody ( 1/100 Anti-GATA6 (Abcam plc, ab22600), 1/50 Anti-Brachyury T (R&D Systems, Inc., AF2085), 1/400 Anti-Sox2 (CST, 3579P2), 1/100 Anti-CDX2 (R&D Systems, Inc., MAB3665), and 1/50 Anti-AP-2a (Santa Cruz Biotechnology Inc., sc-12726)) against the target antigen was added to a 1% blocking solution in PBS(−). The primary antibody solution was added at a volume of 500 μl/24 wells and left standing at room temperature for 60 minutes or overnight at 4° C. Subsequently, the cells were washed three times with PBS(−). […] The processing of the obtained images and quantitative analysis were carried out using image analysis software “Fiji”.

[2] = test system: Human iPS cells (625A4) derived cell population; test: Differentiation marker analysis of cell population by immunocytostaining (Brachyury, CD34; Day 6); conditions: cell cluster obtained with CHIR99021 2 μM (Days 0 to 2), further differentiated; cell population of Day 6
Experimental: Following the preparation of human yolk sac mesoderm cells in [1], the medium was replaced with Essential 6 medium (Gibco) (10 cm dish; 8 ml) supplemented with VEGF (80 ng/ml), FGF2 (25 ng/ml), SCF (50 ng/ml), and SB431542 (2 μM), and hemangioblasts were induced by further culture at 37° C. for 2 days under 5% CO2. Then, the medium was replaced with Stempro-34 SFM (Gibco) (10 cm dish; 8 ml) supplemented with VEGF (80 ng/ml), SCF (50 ng/ml), Flt-3L (50 ng/ml), IL-3 (50 ng/ml), IL-6 (50 ng/ml), and TPO (5 ng/ml), and the cells were cultured at 37° C. for 2 days under 5% CO2. Then, the medium was replaced with a medium of the composition described above except for VEGF, and CD34-positive and CD32-positive vitelline venous hemogenic endothelial cells were induced by culture at 37° C. for 2 days under 5% CO2. After induction of differentiation of the step of Days 4 to 6 in [4], immunocytostaining was performed by the same procedures as in [3] except that the primary antibody used was changed to 1/50 Anti-CD34 (Abcam plc, ab81289).

[3] = test system: Human iPS cells (625A4) colonies; test: Differentiation marker analysis of cell cluster by immunocytostaining after Wnt signal-activating culture step (Day 2)
Experimental: Human iPS cells (625A4; Center for iPS Cell Research and Application (CiRA), Kyoto University) were cultured at 37° C. for 6 to 7 days under 5% CO2 in AK02N (Ajinomoto Co., Inc.) (10 cm dish; 8 ml, 24-well plate; 0.5 ml) to form iPS cell colonies of 500 to 700 μm in diameter. The obtained colonies were cultured at 37° C. for 2 days under 5% CO2 in Essential 8 medium (Gibco) (10 cm dish; 8 ml, 24-well plate; 0.5 ml) supplemented with BMP4 (80 ng/ml), VEGF (80 ng/ml), and CHIR99021 (2 μM) (Days 0 to 2). iPS cell colonies were formed as a control in the same manner as in [1] and [2]. Then, the obtained colonies were cultured at 37° C. for 2 days under 5% CO2 in Essential 8 medium (Gibco) (10 cm dish; 8 ml, 24-well plate; 0.5 ml) supplemented with BMP4 (80 ng/ml) and VEGF (80 ng/ml) (Days 0 to 2). After induction of differentiation in the step of Days 0 to 2 in [1] or [2], the medium was removed, and the cells were washed once with PBS(−) (Gibco). Then, 4% paraformaldehyde was added at a volume of 500 μl/24 wells to the cells and left at room temperature for 15 minutes. Then, the cells were washed three times with PBS(−) and preserved overnight at 4° C. Then, PROTEIN BLOCK SERUM-FREE blocking solution [DAKO, X909] was added at a volume of 500 μl/24 wells to the cells and left at room temperature for 60 minutes for blocking. Then, a primary antibody ( 1/100 Anti-GATA6 (Abcam plc, ab22600), 1/50 Anti-Brachyury T (R&D Systems, Inc., AF2085), 1/400 Anti-Sox2 (CST, 3579P2), 1/100 Anti-CDX2 (R&D Systems, Inc., MAB3665), and 1/50 Anti-AP-2a (Santa Cruz Biotechnology Inc., sc-12726)) against the target antigen was added to a 1% blocking solution in PBS(−). The primary antibody solution was added at a volume of 500 μl/24 wells and left standing at room temperature for 60 minutes or overnight at 4° C. Subsequently, the cells were washed three times with PBS(−). […] The processing of the obtained images and quantitative analysis were carried out using image analysis software “Fiji”.

[4] = test system: Human iPS cells (625A4) derived cell population; test: Differentiation marker analysis using flow cytometry (CD34, CD32; Day 8); conditions: cell cluster obtained with CHIR99021 2 μM (Days 0 to 2), further differentiated; cell population of Day 8; compared with control (−)
Experimental: Following the preparation of human yolk sac mesoderm cells in [1], the medium was replaced with Essential 6 medium (Gibco) (10 cm dish; 8 ml) supplemented with VEGF (80 ng/ml), FGF2 (25 ng/ml), SCF (50 ng/ml), and SB431542 (2 μM), and hemangioblasts were induced by further culture at 37° C. for 2 days under 5% CO2. Then, the medium was replaced with Stempro-34 SFM (Gibco) (10 cm dish; 8 ml) supplemented with VEGF (80 ng/ml), SCF (50 ng/ml), Flt-3L (50 ng/ml), IL-3 (50 ng/ml), IL-6 (50 ng/ml), and TPO (5 ng/ml), and the cells were cultured at 37° C. for 2 days under 5% CO2. Then, the medium was replaced with a medium of the composition described above except for VEGF, and CD34-positive and CD32-positive vitelline venous hemogenic endothelial cells were induced by culture at 37° C. for 2 days under 5% CO2. After induction of differentiation of vitelline venous hemogenic endothelial cells by the step of Days 6 to 8 in [4], the medium was removed, and the cells were washed twice with PBS(−) (Gibco). Then, TrypLE Express (Gibco) was added at a volume of 3 mL/dish and left at 37° C. for 15 minutes. Then, the cells were recovered into a 15 mL tube while dissociated by pipetting with P1000 micropipette. […] The differentiation markers were analyzed by BD LSRFortessa flow cytometry using the obtained antibody-stained cell suspension. Data obtained from flow cytometry was analyzed using FlowJo.

Structure (SMILES)	GATA6-positive cells in an outer edge part of the cell cluster ([1]; 2 μM, Days 0 to 2, compared with +CHIR)	Enrichment of CDX2-positive and TFAP2A-positive AECs in the cell cluster ([1]; IWP-2 2 μM with BMP4 and VEGF in Essential 8, Days 0 to 2, compared with no addition (−))	GATA6 status of the CDX2-positive region (+IWP-2) ([1]; IWP-2 2 μM, Days 0 to 2)	Appearance of CD34-positive vascular endothelial progenitor cells from YSM region in the outer edge part [2]	Enrichment of Brachyury-negative, GATA6-positive, and FOXF1-positive YSMCs in the cell cluster ([3]; CHIR99021 2 μM with BMP4 and VEGF in Essential 8, Days 0 to 2, cell cluster of Day 2, compared with no addition (−))	Morphology of the cell cluster under an optical microscope versus cell cluster obtained by a conventional method ([3]; CHIR99021 2 μM, 2 days after the start of culture)	GATA6 status of the CDX2-negative region (+CHIR) ([3]; CHIR99021 2 μM, Days 0 to 2, cell cluster of Day 2)	CD34-positive and CD32-positive vitelline venous hemogenic endothelial cells produced [4]
Cc1ccc2nc(NC(=O)CSc3nc4c(c(=O)n3-c3ccccc3)SCC4)sc2c1 [IWP-2]	small number of GATA6-positive cells	enriched	GATA6-negative					
Cc1c[nH]c(-c2cnc(NCCNc3ccc(C#N)cn3)nc2-c2ccc(Cl)cc2Cl)n1 [CHIR99021]				Rich CD34-positive vascular endothelial progenitor cells were confirmed to appear	enriched	differ morphologically	GATA6-positive	more
